Assay results reported in PubChem BioAssay AID248 (DTP/NCI, 2004).
Inconclusive results and toxic doses are left out. Cut-off read from the data, not from the text of the source: active = T/C of 150% or more; inactive = T/C below 125%.

Test system: L1210 leukemia ip in BDF1 mice, survival T/C
Test: NCI In Vivo Anticancer Drug Screen. Data for tumor model L1210 Leukemia (intraperitoneal) in B6D2F1 (BDF1) mice
Settings: endpoint: mean survival time, higher = longer survival
In short: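 Transplanted-tumor mice were given test agent; controls received vehicle only. Survival readings from the two groups were divided (treated over control).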

[1] = dose: 100.0 mg/kg/injection, schedule: Q01DX001 (ip), vehicle: saline with Tween-80
[2] = dose: 200.0 mg/kg/injection, schedule: Q01DX001 (ip), vehicle: saline with Tween-80
[3] = dose: 400.0 mg/kg/injection, schedule: Q01DX001 (ip), vehicle: saline with Tween-80
[4] = dose: 100.0 mg/kg/injection, schedule: Q01DX009 (ip), vehicle: Klucel (hydroxypropylcellulose) (HPC)
[5] = dose: 100.0 mg/kg/injection, schedule: Q04DX003 (ip), vehicle: Klucel (hydroxypropylcellulose) (HPC)
[6] = dose: 200.0 mg/kg/injection, schedule: Q01DX009 (ip), vehicle: Klucel (hydroxypropylcellulose) (HPC)
[7] = dose: 200.0 mg/kg/injection, schedule: Q04DX003 (ip), vehicle: Klucel (hydroxypropylcellulose) (HPC)
[8] = dose: 400.0 mg/kg/injection, schedule: Q04DX003 (ip), vehicle: Klucel (hydroxypropylcellulose) (HPC)
[9] = dose: 100.0 mg/kg/injection, schedule: Q01DX001 (ip), vehicle: saline
[10] = dose: 200.0 mg/kg/injection, schedule: Q01DX001 (ip), vehicle: saline
[11] = dose: 400.0 mg/kg/injection, schedule: Q01DX001 (ip), vehicle: saline
[12] = dose: 100.0 mg/kg/injection, schedule: Q04DX003 (ip), vehicle: saline with Tween-80
[13] = dose: 200.0 mg/kg/injection, schedule: Q04DX003 (ip), vehicle: saline with Tween-80

Measured: T/C

S=c1[nH]c2nccnc2[nH]1
inactive: dose: 25.0 mg/kg/injection, schedule: Q01DX009 (ip), vehicle: saline with Tween-80 96 % of control | dose: 50.0 mg/kg/injection, schedule: Q01DX009 (ip), vehicle: saline with Tween-80 96 % of control | dose: 100.0 mg/kg/injection, schedule: Q01DX009 (ip), vehicle: saline with Tween-80 93 % of control | dose: 200.0 mg/kg/injection, schedule: Q01DX009 (ip), vehicle: saline with Tween-80 97 % of control | dose: 400.0 mg/kg/injection, schedule: Q01DX009 (ip), vehicle: saline with Tween-80 104 % of control

CC1CCCC(C)N1N (centres undefined)
inactive: [1] 97 % of control | [2] 93 % of control | [3] 95 % of control

C=CCC(C)(C)/C=N/N
inactive: dose: 37.5 mg/kg/injection, schedule: Q04DX003 (ip), vehicle: saline 101 % of control | dose: 75.0 mg/kg/injection, schedule: Q04DX003 (ip), vehicle: saline 102 % of control | dose: 150.0 mg/kg/injection, schedule: Q04DX003 (ip), vehicle: saline 98 % of control

N#Cc1ccc[n+](CCCl)c1
inactive: dose: 30.0 mg/kg/injection, schedule: Q01DX Z (ip), vehicle: saline 95 % of control

CCCC#CC(=O)OCCCCC
inactive: dose: 100.0 mg/kg/injection, schedule: Q04DX002 (ip), vehicle: saline 108 % of control | dose: 200.0 mg/kg/injection, schedule: Q04DX002 (ip), vehicle: saline 94 % of control | dose: 400.0 mg/kg/injection, schedule: Q04DX002 (ip), vehicle: saline 105 % of control

O=S1(=O)CC(c2ccc(Cl)cc2)Nc2ccccc21 (centres undefined)
inactive: dose: 100.0 mg/kg/injection, schedule: Q01DX001 (ip), vehicle: Klucel (hydroxypropylcellulose) (HPC) 87 % of control | [4] 90 % of control | [5] 103 % of control | dose: 200.0 mg/kg/injection, schedule: Q01DX001 (ip), vehicle: Klucel (hydroxypropylcellulose) (HPC) 93 % of control | [6] 90 % of control | [7] 100 % of control | dose: 400.0 mg/kg/injection, schedule: Q01DX001 (ip), vehicle: Klucel (hydroxypropylcellulose) (HPC) 93 % of control | dose: 400.0 mg/kg/injection, schedule: Q01DX009 (ip), vehicle: Klucel (hydroxypropylcellulose) (HPC) 93 % of control | [8] 92 % of control

CCOC(=O)CC(CC(=O)OCC)NC(=O)c1ccc(N(C)C=O)cc1
inactive: dose: 100.0 mg/kg/injection, schedule: Q01DX001 (ip), vehicle: other 100 % of control | dose: 200.0 mg/kg/injection, schedule: Q01DX001 (ip), vehicle: other 102 % of control | dose: 400.0 mg/kg/injection, schedule: Q01DX001 (ip), vehicle: other 97 % of control

COC1OCC(O)C(O)C1OS(C)(=O)=O (centres undefined)
inactive: [9] 110 % of control | [10] 101 % of control | [11] 104 % of control

CC12CCC=CC1=CC(=O)CC2 (centres undefined)
inactive: dose: 75.0 mg/kg/injection, schedule: Q01DX001 (ip), vehicle: other 98 % of control | dose: 150.0 mg/kg/injection, schedule: Q01DX001 (ip), vehicle: other 106 % of control | dose: 300.0 mg/kg/injection, schedule: Q01DX001 (ip), vehicle: other 103 % of control

CCCCCCCC[As](=O)(O)O
inactive: dose: 1.5 mg/kg/injection, schedule: Q01DX001 (ip), vehicle: carboxymethylcellulose (CMC) 104 % of control | dose: 3.0 mg/kg/injection, schedule: Q01DX001 (ip), vehicle: carboxymethylcellulose (CMC) 98 % of control | dose: 6.0 mg/kg/injection, schedule: Q01DX001 (ip), vehicle: carboxymethylcellulose (CMC) 102 % of control

Cc1cc(C)n(C(=O)Nc2ccccc2)n1
inactive: dose: 100.0 mg/kg/injection, schedule: Q04DX002 (ip), vehicle: saline with Tween-80 105 % of control | dose: 200.0 mg/kg/injection, schedule: Q04DX002 (ip), vehicle: saline with Tween-80 100 % of control

O=C(O)CCC(=O)c1ccc2ccc3cccc4ccc1c2c34
inactive: [9] 98 % of control | [10] 102 % of control | [11] 103 % of control

CCSC(=O)Nc1cccc(O)c1
inactive: dose: 100.0 mg/kg/injection, schedule: Q01DX001 (ip), vehicle: saline + alcohol 94 % of control | dose: 200.0 mg/kg/injection, schedule: Q01DX001 (ip), vehicle: saline + alcohol 94 % of control | dose: 400.0 mg/kg/injection, schedule: Q01DX001 (ip), vehicle: saline + alcohol 93 % of control

[Cl][Tl]
inactive: [9] 94 % of control | dose: 100.0 mg/kg/injection, schedule: Q04DX003 (ip), vehicle: saline 106 % of control | [10] 101 % of control | dose: 200.0 mg/kg/injection, schedule: Q04DX003 (ip), vehicle: saline 90 % of control | [11] 94 % of control

COC1(OC)CCC=C(CNc2ncnc3nc[nH]c23)C1
inactive: [1] 102 % of control | [2] 94 % of control | [3] 100 % of control

C=C(C/C(=C/S(C)=O)c1ccccc1)c1ccccc1 (centres undefined)
inactive: dose: 75.0 mg/kg/injection, schedule: Q01DX001 (ip), vehicle: saline 97 % of control | dose: 150.0 mg/kg/injection, schedule: Q01DX001 (ip), vehicle: saline 96 % of control | dose: 300.0 mg/kg/injection, schedule: Q01DX001 (ip), vehicle: saline 91 % of control

COc1cc(C=Nc2ccc(Oc3ccc(Cl)cc3)cc2)cc(OC)c1OC
inactive: [4] 102 % of control | [6] 96 % of control

CN1CCN(c2ccc(Cl)cc2)CC1
inactive: dose: 25.0 mg/kg/injection, schedule: Q01DX009 (ip), vehicle: Klucel (hydroxypropylcellulose) (HPC) 97 % of control | dose: 25.0 mg/kg/injection, schedule: Q04DX003 (ip), vehicle: Klucel (hydroxypropylcellulose) (HPC) 97 % of control | dose: 50.0 mg/kg/injection, schedule: Q01DX009 (ip), vehicle: Klucel (hydroxypropylcellulose) (HPC) 106 % of control | dose: 50.0 mg/kg/injection, schedule: Q04DX003 (ip), vehicle: Klucel (hydroxypropylcellulose) (HPC) 105 % of control | [4] 100 % of control | [5] 106 % of control

CCOC(=O)C12CCC(C1=O)C(C)(O)CC2 (centres undefined)
inactive: [12] 108 % of control | [13] 97 % of control

NNc1cnc2ccccc2n1
inactive: dose: 100.0 mg/kg/injection, schedule: Q01DX009 (ip), vehicle: saline sonified 90 % of control | [12] 101 % of control | [13] 97 % of control | dose: 400.0 mg/kg/injection, schedule: Q04DX003 (ip), vehicle: saline with Tween-80 113 % of control

O=c1[nH][nH]c(=O)c2c(C3OC(CO)C(O)C3O)[nH]nc12 (centres undefined)
inactive: dose: 100.0 mg/kg/injection, schedule: Q01DX005 (ip), vehicle: saline 90 % of control | dose: 200.0 mg/kg/injection, schedule: Q01DX005 (ip), vehicle: saline 97 % of control

CCOC(=O)C1(C(=O)O)CC2C(C)C=CC(C)C2C1 (centres undefined)
inactive: [5] 100 % of control | [7] 94 % of control | [8] 91 % of control
